From US7838557B2, “Concentrated X-ray contrast media can act as universal antigens and can inhibit or prevent allergic reactions” (priority 2001, dated 2010)

Columns and labels:
[1] = test system: Brown Norway Rats; assay: Mean arterial blood pressure after i.v. contrast media injection, Brown Norway rats; format: in vivo; conditions: mean ± S.E.
[2] = test system: IgG anti-γ-globulin; assay: Passive red blood cell hemagglutination inhibition, γ-globulin vs. anti-γ-globulin; format: binding; conditions: γ-globulin bound to sheep RBC; incubation 2-3 hours at room temperature
Text: Employing a highly sensitive test for antibody-antigen complexing (passive red blood cell hemagglutination inhibition), we found what we consider the answer to this problem. Ovalbumin and gamma globulin (Sigma) were bound to glutaraldehyde stabilized sheep red blood cells (Inter-Cell Technologies, Hopewell, N.J.). Bis-diazotized benzidine was used to bind the ovalbumin to the RBC's. The gamma-globulin bound directly. In both the case of the ovalbumin and the gamma-globulin, the sensitized red blood cells were allowed to incubate with each of the contrast media (methylglucamine iothalamate [CONRAY; 282 mg iodine/ml, Mallinckrodt Medical, St. Louis Mo.], ioversol [[…] 320; 320 mg iodine/ml, […]; 320 mg iodine/ml, Mallinckrodt] and […]; 300 mg iodine/ml, Schering Pharmaceutical; […] When competition occurred, there would be a diminished diameter of the agglutination, depending on the antibody titer that could be compared to a control, where saline was substituted for the CM. With complete competition (inhibition), no agglutination would be visible and the RBCs would form a small button of cells at the bottom of the microtiter well. Visible agglutination was evaluated on a 1+ to 4+ basis. Studies were also carried out where the RBCs were incubated with CM before or after binding of the antigen to BDB or the RBC to determine whether competition of the CM with the antigen might actually represent displacement of the […] from the RBC surface. It was discovered that contrast media can in fact act as an antigen and combine with antibodies ([…]. and […]., Academic Radiology 1998, 5 (suppl. 1; […]-[…])). This was shown when, at various concentrations, individual contrast media would inhibit the agglutination of RBC-attached ovalbumin or RBC-attached gamma globulin in the presence of their respective antibodies, thus resulting in a button of cells, rather than agglutination, in the bottom of the microtiter well.

[3] = test system: Sprague Dawley Rats; assay: Mean arterial blood pressure after i.v. contrast media injection, Sprague Dawley rats; format: in vivo; conditions: mean ± S.E.
[4] = test system: ovalbumin-sensitized Sprague Dawley rats; assay: Blood pressure in ovalbumin anaphylaxis of ovalbumin-sensitized rats; format: in vivo; conditions: CM i.v. 6 hours before, 45 minutes before, concurrently, or 10 minutes after 10 mg ovalbumin
Experimental: To further substantiate the concept that contrast media, acting as pseudoantigens, could interfere with existing antigen-antibody reactions, an experiment was conducted where a series of rats were sensitized to ovalbumin and later challenged the rats by intravenous injections of ovalbumin.
Varying CM or other materials were injected into the tail vein of anesthetized Sprague Dawley rats ([…]). The CM tested were IOXAGLATE and IODIXANOL. Both are CM dimers and IOXAGLATE is ionic and IODIXANOL is nonionic. The CM injections were done 12 to 14 days after sensitization of the rats by intraperitoneal injections of 1 mg of ovalbumin in normal saline. A Propaq blood pressure apparatus was connected to polyethylene catheters inserted into a carotid artery to monitor mean arterial blood pressure. Injection rates were 6 ml/kg/min. The CM were injected I.V. either 6 hours before, 45 minutes before, concurrent with, or 10 minutes post challenge of a dose of 10 mg of ovalbumin. Saline injections, equiosmolar to the CM and injected at the same time intervals served as controls.

[5] = test system: ragweed pollen sensitized rats; assay: Experimental allergic conjunctivitis, ragweed pollen sensitized rats; format: in vivo, Sprague-Dawley rats
Text: In this Example, the potential protective effect of a contrast material on experimental allergic conjunctivitis induced in rats was examined. The rats were sensitized systemically to either ovalbumin or ragweed pollen and 10 to 12 days later obtained local sensitization by several applications of the respective antigens to the eyes. The rats were then challenged with a larger dose of the antigen accompanied by either the contrast media or equiosmolal saline and sacrificed at several different time periods for examination of the excised eyes.
The tissues were examined on a “blinded” basis and assigned a 0 to 3+ rating based on the perceived abundance of inflammatory cells (mostly lymphocytes, but also including eosinophils, polymorphonuclear leukocytes, and mast cells). The ovalbumin experiment was carried out at 3 hours post antigen application (8 rats) and at 24 hours post application (8 rats) and the ragweed study was carried out at 1 hour post application (8 rats) and at 24 hours post application (8 rats). The cumulative scores for the ratings in each set of rats were recorded. Details of the ovalbumin study are as follows.
A ragweed pollen experiment also involved 16 Sprague-Dawley rats born approximately 2 months previously and sensitized on Day 1 with SQ injections of 0.1 ml of N. saline containing 100 μg of ragweed pollen (P-0146, Sigma) and 20 mg alum. On Day 14, 20 μl of saline (left eye) or 20 μl of IODIXANOL (right eye) were applied to the eyes. 15 min. later, both eyes were treated with 10 μl of phosphate buffered saline containing 1.5 mg of ragweed pollen. The process was done 4 times at 15 min. intervals.

[6] = test system: Brown-Norway and Sprague Dawley rats; assay: Blood pressure changes in rats after H-1 blocker, L-NAME or contrast media (text and FIGS. 4A-4B); format: in vivo
[7] = test system: rats injected intradermally with serum from ovalbumin sensitized rats; assay: Passive cutaneous anaphylaxis (PCA), Evans Blue extravasation; format: in vivo; conditions: for Stain (mm ± S.E./10): 50 μl sensitized serum
Experimental: In a further test of the ability of appropriate contrast media to mitigate ongoing antigen-antibody reactions, a passive cutaneous anaphylaxis (PCA) experiment was performed in rats.
In this Example, rats were injected intradermally with 50 μL of serum from ovalbumin sensitized rats and varying mixtures of Na/meglumine iothalamate (MD-76; 370 mg iodine/ml, Mallinckrodt) and normal saline to a total of 50 μl. This was followed in 5-7 hours by intravenous injections of 1 mg ovalbumin along with Evans Blue and then measurement of the subsequent extravasation of the blue coloring in the area under the skin. Evans Blue binds to serum albumin and the diameter of the area of blue indicates extravasation of albumin secondary to specific antigen-antibody reactions. […] In this case, where large amounts of CM are available due to local deposition, even an ionic monomer was sufficient to block specific antibody-antigen reactivity (see Table III below).

CNC(=O)c1c(I)c(NC(C)=O)c(I)c(C(=O)O)c1I.CNC[C@H](O)[C@@H](O)[C@H](O)[C@H](O)CO [Conray, methylglucamine iothalamate]
Net decrease in mean arterial blood pressure ([1]; Monomers (4 ml)): decrease (37 ± 1.6) (3) mm Hg
Lowest concentration of CM showing a 2+ or 3+ inhibition of 1/500 IgG anti-γ-globulin [2]: 28.2 mg/mL
Net decrease in mean arterial blood pressure ([3]; Monomers (4 ml)): decrease (55 ± 5.0) (3) mm Hg

CNC(=O)c1c(I)c(C(=O)NCC(=O)Nc2c(I)c(C(=O)O)c(I)c(C(=O)NCCO)c2I)c(I)c(N(C)C(C)=O)c1I [HEXABRIX, IOXAGLATE]
Net increase in mean arterial blood pressure ([1]; Dimers (8 ml)): increase (31 ± 4.6) (3) mm Hg
Lowest concentration of CM showing a 2+ or 3+ inhibition of 1/500 IgG anti-γ-globulin [2]: 8.0 mg/mL
Return of blood pressure after ovalbumin challenge, compared with equiosmolar saline [4]: more rapid return of the blood pressure to normal levels

CC(=O)N(CC(O)CN(C(C)=O)c1c(I)c(C(=O)NCC(O)CO)c(I)c(C(=O)NCC(O)CO)c1I)c1c(I)c(C(=O)NCC(O)CO)c(I)c(C(=O)NCC(O)CO)c1I (centres unmarked) [IODIXANOL]
Cumulative score of inflammatory cell infiltration (0 to 3+ rating per eye) ([5]; 1 HOUR READING, 20 μl applied to the eye before ragweed pollen, 8 rats): 0
Protection against ragweed pollen conjunctivitis (in words) ([5]; local application): provides a degree of protection
Number of zero scores in the group ([5]; no absolute zeros in the saline group, study (ragweed or combined) not specified): 3
Return of blood pressure after ovalbumin challenge, compared with equiosmolar saline [4]: more rapid return of the blood pressure to normal levels

CN(C(=O)CC(=O)N(C)c1c(I)c(C(=O)NC(CO)C(O)CO)c(I)c(C(=O)NC(CO)C(O)CO)c1I)c1c(I)c(C(=O)NC(CO)C(O)CO)c(I)c(C(=O)NC(CO)C(O)CO)c1I (centres unmarked) [ISOVIST, IOTROLAN]
Net increase in mean arterial blood pressure ([1]; Dimers (4 ml)): increase (18 ± 0.00 (1) mm Hg
Net increase in mean arterial blood pressure ([1]; Dimers (8 ml)): increase (20 ± 2.0) (4) mm Hg
Lowest concentration of CM showing a 2+ or 3+ inhibition of 1/500 IgG anti-γ-globulin [2]: 14.0 mg/mL
Change in blood pressure (in words) ([6]; production of nitric oxide blocked by L-NAME): can no longer produce an elevation in blood pressure
Change in blood pressure (in words) ([6]; substance injected by itself): produces an elevation in pressure
Net increase in mean arterial blood pressure ([3]; Dimers (8 ml)): increase (11 ± 4.6) (3) mm Hg

C[C@H](O)C(=O)Nc1c(I)c(C(=O)NC(CO)CO)c(I)c(C(=O)NC(CO)CO)c1I [Isovue, IOPAMIDOL]
Net decrease in mean arterial blood pressure ([1]; Monomers (8 ml)): decrease (36 ± 8.6) (2) mm Hg
Net decrease in mean arterial blood pressure ([3]; Monomers (8 ml)): decrease (27 ± 8.6) (2) mm Hg

COC(=O)[C@@H](N)CCCNC(=N)N[N+](=O)[O-] [L-NAME, NG-nitro-L-arginine methyl ester]
Change in blood pressure (in words) ([6]; substance injected by itself): immediate elevation in blood pressure

CNC(=O)c1c(I)c(NC(C)=O)c([125I])c(C(=O)[O-])c1[125I].[Na+] [Na LOTHALAMATE]
Lowest concentration of CM showing a 2+ or 3+ inhibition of 1/500 IgG anti-γ-globulin [2]: 28.2 mg/mL

O=C(NCC(O)CO)c1c(I)c(C(=O)NCC(O)CO)c(I)c(N(CCO)C(=O)CO)c1I (centres unmarked) [OPTIRAY, IOVERSOL]
Net decrease in mean arterial blood pressure ([1]; Monomers (4 ml)): decrease (20 ± 1.5) (3) mm Hg
Net decrease in mean arterial blood pressure ([1]; Monomers (8 ml)): decrease (33 ± 2.8) (3) mm Hg
Lowest concentration of CM showing a 2+ or 3+ inhibition of 1/500 IgG anti-γ-globulin [2]: 16.0 mg/mL
Net decrease in mean arterial blood pressure ([3]; Monomers (8 ml)): decrease (22 ± 0.0) (1) mm Hg

CN(C)CCOC(c1ccccc1)c1ccccc1 [diphenyhydramine, diphenhydramine]
Change in blood pressure (in words) ([6]; substance injected by itself): immediate elevation in blood pressure

Na/meglumine iothalamate [MD-76]
Stain (mm ± S.E./10) ([7]; Site 1: 50 μl CM, 0 μl saline): 7.5 ± 7 mm
Stain (mm ± S.E./10) ([7]; Site 2: 40 μl CM, 10 μl saline): 10.0 ± 10 mm
Stain (mm ± S.E./10) ([7]; Site 3: 30 μl CM, 20 μl saline): 17.5 ± 10 mm
Stain (mm ± S.E./10) ([7]; Site 4: 20 μl CM, 30 μl saline): 62.5 ± 28 mm
Stain (mm ± S.E./10) ([7]; Site 5: 10 μl CM, 40 μl saline): 115 ± 60 mm
Stain ([7]; controls with nonsensitized serum (3 rats), 0, 25, and 50 μl CM): no stain

meglumine/sodium diatrizoate [Angiovist]
Net decrease in mean arterial blood pressure ([1]; Monomers (8 ml)): decrease (40 ± 0.0) (1) mm Hg
